Data from patent publication US7202265B2, “Indolinone combinatorial libraries and related products and methods for the treatment of disease” (Sugen, Inc., priority 1997, dated 2007).

System: human MET
Assay: MET biochemical kinase assay
Set-up: concentration or dose not given beside the values
Description: (d) MET Biochemical Kinase Assay
A met biochemical kinase assay may be performed for met generally as described above for other kinases by substituting that or the other kinases. In particular, ELISA plates are coated with goat anti-rabbit Fc antibodies, which are used to capture commercially available (from Santa Cruz Biotechnology) rabbit polyclonal antibodies to the cytoplasmic domain of human MET. […] The chimeric receptors, or MET, from these lysates are captured on the antibody coated plates. After washing away extraneous proteins, test compounds are added and an in vitro kinase assay is performed by addition of an appropriate kinase buffer (containing ATP, divalent metal ions, etc.). Incorporation of phosphate into the captured receptors is detected with an anti-phosphotyrosine antibody conjugate with horse radish peroxidase using TMB as a substrate for calorimetric detection.

| Met Kinase % Inhibition [%] | Structure (SMILES) |
| --- | --- |
| 74.0 | O=CN1CCN(c2ccc(C=C3C(=O)Nc4ccc(I)cc43)cc2)CC1 [10725/B07] |
| 69.0 | O=C1Nc2c(Br)cc(Br)cc2C1=Cc1cc2ccccc2nc1Cl [10730/A08] |
| 7.1 | COc1ccc(OC)c(C=C2C(=O)Nc3ccc(CCCl)cc32)c1 [10728/G02] |
| 2.3 | O=C1Nc2ccc(CCCl)cc2C1=Cc1cc2ccccc2o1 [10724/G07] |
| 92.0 | CNS(=O)(=O)c1ccc2c(c1)C(=Cc1cc(Br)cc(Br)c1O)C(=O)N2 [10734/D07] |
| 46.0 | CCOc1cccc(C=C2C(=O)Nc3ccc(S(=O)(=O)NC)cc32)c1O [10734/D02] |
| −0.8 | COc1cccc(C=C2C(=O)Nc3ccc(CCCl)cc32)c1OC [10727/G11] |
| 61.0 | O=C1Nc2ccc(CCCl)cc2C1=Cc1cc2c3c(c1O)CCCN3CCC2 [10724/G05] |
| 29.0 | O=C1Nc2c(Br)cc(Br)cc2C1=Cc1ccccc1Sc1ccc(Cl)cc1 [10727/A05] |
| −7.4 | Cc1cn(C)cc1C=C1C(=O)Nc2ccc(S(=O)(=O)Nc3ccc(C(F)(F)F)cc3)cc21 [10726/E06] |
| 9.8 | CSc1ccc(C=C2C(=O)Nc3ccc(S(=O)(=O)Nc4ccc(C(F)(F)F)cc4)cc32)cc1 [10729/E04] |
| −3.0 | COc1cccc(C=C2C(=O)Nc3ccc(S(=O)(=O)N4CCOCC4)cc32)c1OC [10727/F11] |

More lines, now with the values behind:

| Structure (SMILES) | Met Kinase % Inhibition [%] |
| --- | --- |
| O=C1Nc2ccc(S(=O)(=O)Nc3ccc(C(F)(F)F)cc3)cc2C1=Cc1ccc(C(=O)O)cc1 [10722/E05] | 73.0 |
| CC(C)(C)c1cc(C=C2C(=O)Nc3ccc(S(=O)(=O)Nc4ccc(C(F)(F)F)cc4)cc32)ccc1O [10721/E09] | 0.7 |
| Cn1cccc1C=C1C(=O)Nc2ccc(I)cc21 [10717/B04] | 70.0 |
| CNS(=O)(=O)c1ccc2c(c1)C(=Cc1ccc(Cl)s1)C(=O)N2 [10721/D07] | −6.8 |
| Cc1c(O)ccc(C=C2C(=O)Nc3ccc(CCCl)cc32)c1O [10718/G09] | 27.0 |
| O=C1Nc2ccc(S(=O)(=O)N3CCOCC3)cc2C1=Cc1cc(O)c(O)c(Br)c1 [10723/F04] | 94.0 |
| COc1ccc(C=C2C(=O)Nc3ccc(S(=O)(=O)Nc4ccc(C(F)(F)F)cc4)cc32)c(OC)c1 [10719/E04] | 3.1 |
| CC(C)(C)c1cc(C=C2C(=O)Nc3ccc(CCCl)cc32)cc(C(C)(C)C)c1O [10721/G11] | −0.0 |
| CNS(=O)(=O)c1ccc2c(c1)C(=Cc1ccccc1O)C(=O)N2 [10720/D05] | 9.8 |
| CC(C)(C)c1cc(C=C2C(=O)Nc3c(Br)cc(Br)cc32)ccc1O [10721/A09] | 23.0 |
| Cc1c(Br)ccc2c1C(=Cc1ccc(O)cc1)C(=O)N2 [10719/C07] | 7.7 |
| O=C1Nc2ccc(CCCl)cc2C1=Cc1ccc(C(=O)O)cc1 [10722/G05] | 9.7 |
| CNS(=O)(=O)c1ccc2c(c1)C(=Cc1ccc(O)c(C)c1)C(=O)N2 [10723/D06] | 60.0 |
| O=C1Nc2ccc(CCCl)cc2C1=Cc1ccccc1O [10720/G05] | 37.0 |
| O=C1Nc2ccc(S(=O)(=O)N3CCOCC3)cc2C1=Cc1ccc(Br)cc1 [10717/F08] | 64.0 |
| Cn1c(C=C2C(=O)Nc3ccc(CCCl)cc32)nc2ccccc21 [10721/G02] | 7.9 |
| Cc1c(Br)ccc2c1C(=Cc1ccc(F)cc1Cl)C(=O)N2 [10719/C09] | 8.9 |
| COc1cc(OC)c(C=C2C(=O)Nc3c(Br)cc(Br)cc32)c(OC)c1 [10719/A06] | −7.0 |
| CCCCN(CCCC)c1ccc(C=C2C(=O)Nc3ccc(CCCl)cc32)cc1 [10722/G10] | 27.0 |
| Cc1c(Br)ccc2c1C(=Cc1cccn1C)C(=O)N2 [10717/C04] | 25.0 |
| COc1cc(OC)c(C=C2C(=O)Nc3ccc(S(=O)(=O)N4CCOCC4)cc32)c(OC)c1 [10719/F06] | −22.0 |
